# Columns and labels:
# human recombinant αAC = molecular target: T1, human recombinant αAC (Homo sapiens, UniProt P02489); assay: AGE formation (CML, CEL) in glycated recombinant αAC; format: biochemical; conditions: αAC 3 mg/mL pretreated with 10 mM aggrelyte-2 for 24 h, glycating mixture 5 days
# T1 sequence (P02489 1-173): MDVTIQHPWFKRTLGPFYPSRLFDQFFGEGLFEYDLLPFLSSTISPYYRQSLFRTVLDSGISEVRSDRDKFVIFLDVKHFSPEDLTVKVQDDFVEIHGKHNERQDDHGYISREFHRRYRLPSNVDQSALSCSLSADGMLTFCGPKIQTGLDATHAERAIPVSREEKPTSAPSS
# Experimental: (§1) To investigate the effects of Aggrelyte-2 on advanced glycation end product (AGE) formation, human recombinant αAC (3 mg/mL) or γD-crystallin (γDC, 2 mg/mL) in PBS was treated with or without aggrelyte-2 (10 mM for αAC and 1.25 mM for γDC) for 24 h, dialyzed against 100 mM sodium phosphate buffer pH 7.4 for 16 h and incubated with or without a glycating mixture (2 mM ascorbate, 25 mM D-glucose and 250 μM methylglyoxal) in 100 mM sodium phosphate buffer pH 7.4 for 5 days (after adding 0.002% sodium azide) at 37° C. The incubated proteins were dialyzed against PBS for 16 h, treated with 100 mM sodium borohydride for 1 h at room temperature, and acid hydrolyzed. Two AGEs, N^−-carboxymethyllysine (CML) and N^□-carboxyethyllysine (CEL), were measured by LC-MS/MS as described above. Each sample was separately processed 3-4 times.
# mouse lenses = assay: AcK in WS fraction of treated mouse lenses (LC-MS/MS); conditions: 1 mM, 24 hours, vs untreated controls and Aggrelyte-2C (p<0.0001)
# Experimental: Mouse and human lenses were treated with aggrelytes as described in Example 10. Water-soluble proteins from mouse and human lenses were obtained as described in Example 13. Effects of aggrelyte treatment on AcK-bearing proteins in the WS fractions were evaluated by LC-MS/MS analysis as described in Example 6.
# γD-crystallin (γDC) = molecular target: T2, γD-crystallin (γDC) (Homo sapiens, UniProt P07320); assay: AGE formation (CML, CEL) in glycated recombinant γD-crystallin; format: biochemical; conditions: γDC 2 mg/mL pretreated with 1.25 mM aggrelyte-2 for 24 h, glycating mixture 5 days
# T2 sequence (P07320 1-174): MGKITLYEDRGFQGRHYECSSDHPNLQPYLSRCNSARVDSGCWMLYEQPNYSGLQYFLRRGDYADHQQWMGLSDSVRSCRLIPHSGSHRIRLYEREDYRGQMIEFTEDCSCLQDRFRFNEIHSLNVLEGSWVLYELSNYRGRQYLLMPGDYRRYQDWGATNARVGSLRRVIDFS
# Experimental: as §1
smiles,measurement,setting,value
"COC(=O)[C@H](CSC(C)=O)NC(C)=O [Aggrelyte-2, N,S-diacetyl-L-cysteine methyl ester]",levels of both CML and CEL (AGEs) after glycation,human recombinant αAC,significantly reduced (p<0.0001)
same,AcK modifications in WS proteins (LC-MS/MS),mouse lenses,significantly higher AcK modifications
same,levels of both CML and CEL (AGEs) after glycation,γD-crystallin (γDC),significantly reduced (p<0.0001)

# Reference: patent US12350250B2, “Aggrelytes for treating ocular conditions” (The Regents of the University of Colorado, a Body Corporate, priority 2022, dated 2025)
